Source: patent US10695342B2, “Methods and compositions for preventing opioid abuse” (Albany Molecular Research, Inc., priority 2015, dated 2020)
Where “and” joins values, the source holds several entries; their conditions need not be identical. Equal entries are not always repeated. Structures can show the parent of a compound that is named as a salt.

Legend:
[1] = Oral gavage pharmacokinetics in rats, plasma oxycodone by LC-MS/MS; details: 0.89 mg/kg oral, rat; for Plasma Concentration (oxycodone), Mean: mean of the N quantifiable subjects
[2] = Dissolution of test article in dosing formulation; details: Ex No. B1a, 6.72 mg/kg group, 0.5% methylcellulose vehicle, equivalent to 2 mg/mL oxymorphone HCl
[3] = Oral gavage pharmacokinetics in rats, plasma oxymorphone by LC-MS/MS; details: for concentration at 0.25 h / concentration at 0.5 h / concentration at 1 h / concentration at 2 h / concentration at 3 h / concentration at 4 h / concentration at 6 h: oral, Plasma oxymorphone
[4] = 1.77 mg/kg Oxymorphone HCl oral, rat, hydrochloride

Compound: COc1ccc2c3c1O[C@H]1C(OC(=O)C[C@H](O)C(=O)O)=CC[C@@]4(O)[C@@H](C2)N(C)CC[C@]314.Cl [Oxycodone Malate, (S)-2-Hydroxy-4-(((4R,4aS,7aR,12bS)-4a-hydroxy-9-methoxy-3-methyl-2,3,4,4a,5,7a-hexahydro-1H-4,12-methanobenzofuro[3,2-e]isoquinolin-7-yl)oxy)-4-oxobutanoic acid hydrochloride]
- Plasma Concentration (oxycodone) by Subject ([1]; 6 h): BLQ
- Plasma Concentration (oxycodone), Mean ([1]; 6 h): BLQ

Compound: CCCCCCCC/C=C\CCCCCCCC(=O)OC1=CC[C@@]2(O)[C@H]3Cc4ccc(OC)c5c4[C@@]2(CCN3C)[C@H]1O5.Cl [Oxycodone Oleate, (4R,4aS,7aR,12bS)-4a-Hydroxy-9-methoxy-3-methyl-2,3,4,4a,5,7a-hexahydro-1H-4,12-methanobenzofuro[3,2-e]isoquinolin-7-yl oleate hydrochloride]
- Plasma Concentration (oxycodone) by Subject ([1]; 4 h): BLQ
- Plasma Concentration (oxycodone), Mean ([1]; 4 h): BLQ

Compound: COc1ccc2c3c1O[C@H]1C(OC(=O)[C@H](O)c4ccccc4)=CC[C@@]4(O)[C@@H](C2)N(C)CC[C@]314 [Oxycodone Mandelate, (R)-(4R,4aS,7aR,12bS)-4a-Hydroxy-9-methoxy-3-methyl-2,3,4,4a,5,7a-hexahydro-1H-4,12-methanobenzofuro[3,2-e]isoquinolin-7-yl 2-hydroxy-2-phenylacetate trifluoroacetic acid salt]
- Plasma Concentration (oxycodone) by Subject ([1]; 4 h): BLQ
- Plasma Concentration (oxycodone), Mean ([1]; 4 h): BLQ
- Plasma Concentration (oxycodone) by Subject ([1]; 6 h): BLQ
- Plasma Concentration (oxycodone), Mean ([1]; 6 h): BLQ

Compound: COc1ccc2c3c1O[C@H]1C(=O)CC[C@@]4(O)[C@@H](C2)N(C)CC[C@]314.Cl [Oxycodone HCl, oxycodone HCl]
- Plasma Concentration (oxycodone) by Subject ([1]; 2 h): BLQ
- Plasma Concentration (oxycodone), Mean ([1]; 2 h): BLQ
- Plasma Concentration (oxycodone) by Subject ([1]; 3 h): BLQ
- Plasma Concentration (oxycodone), Mean ([1]; 3 h): BLQ
- Plasma Concentration (oxycodone) by Subject ([1]; 4 h): BLQ
- Plasma Concentration (oxycodone), Mean ([1]; 4 h): BLQ
- Plasma Concentration (oxycodone) by Subject ([1]; 6 h): BLQ
- Plasma Concentration (oxycodone), Mean ([1]; 6 h): BLQ

Compound: COc1ccc2c3c1O[C@H]1C(OC(=O)[C@H](C)O)=CC[C@@]4(O)[C@@H](C2)N(C)CC[C@]314 [Oxycodone Lactate, (S)-(4R,4aS,7aR,12bS)-4a-Hydroxy-9-methoxy-3-methyl-2,3,4,4a,5,7a-hexahydro-1H-4,12-methanobenzofuro[3,2-e]isoquinolin-7-yl 2-hydroxypropanoate trifluoroacetic acid salt]
- Plasma Concentration (oxycodone) by Subject ([1]; 6 h): BLQ
- Plasma Concentration (oxycodone), Mean ([1]; 6 h): BLQ

Compound: COc1ccc2c3c1O[C@H]1C(OC(=O)C[C@H](OC(=O)C[C@H](O)C(=O)O)C(=O)O)=CC[C@@]4(O)[C@@H](C2)N(C)CC[C@]314 [Oxycodone Dimalate, (S)-4-((S)-1-Carboxy-3-(((4R,4aS,7aR,12bS)-4a-hydroxy-9-methoxy-3-methyl-2,3,4,4a,5,7a-hexahydro-1H-4,12-methanobenzofuro[3,2-e]isoquinolin-7-yl)oxy)-3-oxopropoxy)-2-hydroxy-4-oxobutanoic acid trifluoroacetic acid salt]
- Plasma Concentration (oxycodone) by Subject ([1]; 0.25 h): BLQ
- Plasma Concentration (oxycodone), Mean ([1]; 0.25 h): BLQ
- Plasma Concentration (oxycodone) by Subject ([1]; 0.5 h): BLQ
- Plasma Concentration (oxycodone), Mean ([1]; 0.5 h): BLQ
- Plasma Concentration (oxycodone) by Subject ([1]; 2 h): BLQ
- Plasma Concentration (oxycodone), Mean ([1]; 2 h): BLQ
- Plasma Concentration (oxycodone) by Subject ([1]; 3 h): BLQ
- Plasma Concentration (oxycodone), Mean ([1]; 3 h): BLQ
- Plasma Concentration (oxycodone) by Subject ([1]; 4 h): BLQ
- Plasma Concentration (oxycodone), Mean ([1]; 4 h): BLQ
- Plasma Concentration (oxycodone) by Subject ([1]; 6 h): BLQ
- Plasma Concentration (oxycodone), Mean ([1]; 6 h): BLQ

Compound: CN1CC[C@]23c4c5ccc(O)c4O[C@H]2C(OC(=O)[C@@H](O)c2ccccc2)=CC[C@@]3(O)[C@H]1C5.Cl [Oxymorphone Mandelate]
- Solubility of test article in dosing formulation [2]: (not completely soluble)

Compound: CN1CC[C@]23c4c5ccc(O)c4O[C@H]2C(=O)CC[C@@]3(O)[C@H]1C5 [Oxymorphone HCl, oxymorphone hydrochloride]
- Plasma oxymorphone, individual rats ([3]; 1.77 mg/kg Oxymorphone HCl oral, rat, 0.25 h, hydrochloride): 0.379 ng/mL and 0.862 ng/mL and 1.144 ng/mL
- Plasma oxymorphone, individual rats ([3]; 1.77 mg/kg Oxymorphone HCl oral, rat, 0.5 h, hydrochloride): 0.343 ng/mL and 0.925 ng/mL and 0.799 ng/mL
- Plasma oxymorphone, individual rats ([3]; 1.77 mg/kg Oxymorphone HCl oral, rat, 1 h, hydrochloride): 0.545 ng/mL and 1.557 ng/mL and 1.110 ng/mL
- Plasma oxymorphone, individual rats ([3]; 1.77 mg/kg Oxymorphone HCl oral, rat, 2 h, hydrochloride): 0.728 ng/mL and 1.826 ng/mL and 0.621 ng/mL
- Plasma oxymorphone, individual rats ([3]; 1.77 mg/kg Oxymorphone HCl oral, rat, 3 h, hydrochloride): 0.676 ng/mL and BQL (BQL: <0.200 ng/mL)
- Plasma oxymorphone, individual rats ([3]; 1.77 mg/kg Oxymorphone HCl oral, rat, 4 h, hydrochloride): 0.429 ng/mL and BQL (BQL: <0.200 ng/mL)
- Plasma oxymorphone, individual rats ([3]; 1.77 mg/kg Oxymorphone HCl oral, rat, 6 h, hydrochloride): BQL (BQL: <0.200 ng/mL)
- Cmax of plasma oxymorphone, individual rats [3, 4]: 0.728 ng/mL and 1.826 ng/mL and 1.144 ng/mL
- Tmax of plasma oxymorphone, individual rats [3, 4]: 2.00 h (2×) and 0.25 h
- Plasma oxymorphone, individual rats ([3]; 3.54 mg/kg Oxymorphone HCl oral, rat, 0.25 h, hydrochloride): 4.958 ng/mL and 3.246 ng/mL and 1.767 ng/mL
- Plasma oxymorphone, individual rats ([3]; 3.54 mg/kg Oxymorphone HCl oral, rat, 0.5 h, hydrochloride): 4.716 ng/mL and 2.469 ng/mL and 2.095 ng/mL
- Plasma oxymorphone, individual rats ([3]; 3.54 mg/kg Oxymorphone HCl oral, rat, 1 h, hydrochloride): 3.423 ng/mL and 2.146 ng/mL and 0.913 ng/mL
- Plasma oxymorphone, individual rats ([3]; 3.54 mg/kg Oxymorphone HCl oral, rat, 2 h, hydrochloride): 2.434 ng/mL and 1.639 ng/mL
- Plasma oxymorphone, individual rats ([3]; 3.54 mg/kg Oxymorphone HCl oral, rat, 3 h, hydrochloride): 0.577 ng/mL and 1.635 ng/mL and 1.276 ng/mL
- Plasma oxymorphone, individual rats ([3]; 3.54 mg/kg Oxymorphone HCl oral, rat, 4 h, hydrochloride): 0.545 ng/mL and 0.618 ng/mL
- Plasma oxymorphone, individual rats ([3]; 3.54 mg/kg Oxymorphone HCl oral, rat, 6 h, hydrochloride): 0.796 ng/mL and 0.774 ng/mL
- concentration at 0.25 h ([3]; male, Sprague Dawley, rat, plasma, 1.77 mg/kg, Mean, 1.77 mg/kg Oxymorphone HCl oral, 0.25 h): 0.795 ng/mL
- concentration at 0.5 h ([3]; male, Sprague Dawley, rat, plasma, 1.77 mg/kg, Mean, 1.77 mg/kg Oxymorphone HCl oral, 0.5 h): 0.689 ng/mL
- concentration at 1 h ([3]; male, Sprague Dawley, rat, plasma, 1.77 mg/kg, Mean, 1.77 mg/kg Oxymorphone HCl oral, 1 h): 1.07 ng/mL
- concentration at 2 h ([3]; male, Sprague Dawley, rat, plasma, 1.77 mg/kg, Mean, 1.77 mg/kg Oxymorphone HCl oral, 2 h): 1.06 ng/mL
- concentration at 3 h ([3]; male, Sprague Dawley, rat, plasma, 1.77 mg/kg, Mean, 1.77 mg/kg Oxymorphone HCl oral, 3 h): 0.378 ng/mL
- concentration at 4 h ([3]; male, Sprague Dawley, rat, plasma, 1.77 mg/kg, Mean, 1.77 mg/kg Oxymorphone HCl oral, 4 h): 0.312 ng/mL
- concentration at 6 h ([3]; male, Sprague Dawley, rat, plasma, 1.77 mg/kg, Mean, 1.77 mg/kg Oxymorphone HCl oral, 6 h): 0.6 ng/mL
- concentration at 3 h ([3]; male, Sprague Dawley, rat, plasma, 1.77 mg/kg, individual rats, 1.77 mg/kg Oxymorphone HCl oral, 3 h): 0.457 ng/mL
- concentration at 4 h ([3]; male, Sprague Dawley, rat, plasma, 1.77 mg/kg, individual rats, 1.77 mg/kg Oxymorphone HCl oral, 4 h): 0.508 ng/mL
- concentration at 6 h ([3]; male, Sprague Dawley, rat, plasma, 1.77 mg/kg, individual rats, 1.77 mg/kg Oxymorphone HCl oral, 6 h): 1.8 ng/mL
- concentration at 0.25 h ([3]; male, Sprague Dawley, rat, plasma, 3.54 mg/kg, Mean, 3.54 mg/kg Oxymorphone HCl oral, 0.25 h): 3.32 ng/mL
- concentration at 0.5 h ([3]; male, Sprague Dawley, rat, plasma, 3.54 mg/kg, Mean, 3.54 mg/kg Oxymorphone HCl oral, 0.5 h): 3.09 ng/mL
- concentration at 1 h ([3]; male, Sprague Dawley, rat, plasma, 3.54 mg/kg, Mean, 3.54 mg/kg Oxymorphone HCl oral, 1 h): 2.16 ng/mL
- concentration at 2 h ([3]; male, Sprague Dawley, rat, plasma, 3.54 mg/kg, Mean, 3.54 mg/kg Oxymorphone HCl oral, 2 h): 1.78 ng/mL
- concentration at 3 h ([3]; male, Sprague Dawley, rat, plasma, 3.54 mg/kg, Mean, 3.54 mg/kg Oxymorphone HCl oral, 3 h): 1.16 ng/mL
- concentration at 4 h ([3]; male, Sprague Dawley, rat, plasma, 3.54 mg/kg, Mean, 3.54 mg/kg Oxymorphone HCl oral, 4 h): 0.499 ng/mL
- concentration at 6 h ([3]; male, Sprague Dawley, rat, plasma, 3.54 mg/kg, Mean, 3.54 mg/kg Oxymorphone HCl oral, 6 h): 0.674 ng/mL
- concentration at 2 h ([3]; male, Sprague Dawley, rat, plasma, 3.54 mg/kg, individual rats, 3.54 mg/kg Oxymorphone HCl oral, 2 h): 1.27 ng/mL
- concentration at 4 h ([3]; male, Sprague Dawley, rat, plasma, 3.54 mg/kg, individual rats, 3.54 mg/kg Oxymorphone HCl oral, 4 h): 0.335 ng/mL
- concentration at 6 h ([3]; male, Sprague Dawley, rat, plasma, 3.54 mg/kg, individual rats, 3.54 mg/kg Oxymorphone HCl oral, 6 h): 0.453 ng/mL
- Cmax ([3]; male, Sprague Dawley, rat, plasma, po, 1.77 mg/kg, Cmax of plasma oxymorphone, Mean, 1.77 mg/kg Oxymorphone HCl oral): 1.23 ng/mL
- Tmax ([3]; male, Sprague Dawley, rat, plasma, po, 1.77 mg/kg, Tmax of plasma oxymorphone, Mean, 1.77 mg/kg Oxymorphone HCl oral): 1.42 h

Compound: CCCCCCCC/C=C\CCCCCCCC(=O)OC1=CC[C@@]2(O)[C@H]3Cc4ccc(O)c5c4[C@@]2(CCN3C)[C@H]1O5 [Oxymorphone Oleate, trifluoroacetic acid salt]
- Plasma oxymorphone, individual rats ([3]; 7.12 mg/kg oral, Ex No. B3, rat, 0.25 h, trifluoroacetic acid salt): BQL (BQL: <0.200 ng/mL)
- Plasma oxymorphone, individual rats ([3]; 7.12 mg/kg oral, Ex No. B3, rat, 0.5 h, trifluoroacetic acid salt): BQL (BQL: <0.200 ng/mL)
- Plasma oxymorphone, individual rats ([3]; 7.12 mg/kg oral, Ex No. B3, rat, 2 h, trifluoroacetic acid salt): BQL (BQL: <0.200 ng/mL)
